Experimental data reported in article PMC6271545, “Comparative Pharmacokinetics Study of Sinomenine in Rats after Oral Administration of Sinomenine Monomer and Sinomenium Acutum Extract” (Molecules, 2014).

Test: Pharmacokinetics of sinomenine in rat plasma after oral administration of sinomenine monomer and Sinomenium acutum extract
Conditions: male, Wistar

Work on `COC1=C[C@H]2[C@H]3Cc4ccc(OC)c(O)c4[C@@]2(CCN3C)CC1=O` [Sinomenine, 7,8-didehydro-4-hydroxy-3,7-dimethoxy-17-methylmorphinane-6-one] yielded an AUC(0-inf) (30 mg/kg) of 32800 ± 5370 ng·h/mL, an AUC(0-t) (30 mg/kg) of 29200 ± 4060 ng·h/mL and a CL/F (30 mg/kg) of 15.6 mL/min/kg. It also gave a Cmax (30 mg/kg) of 5240 ± 390 ng/mL, an MRT inf (30 mg/kg) of 7.3 ± 0.889 h and a Tmax (30 mg/kg) of 1.08 ± 0.204 h. For the same molecule, the half-life (30 mg/kg) was 4.88 ± 0.635 h, the AUC(0-inf) (60 mg/kg) was 94000 ± 11200 ng·h/mL and the AUC(0-t) (60 mg/kg) was 78900 ± 5130 ng·h/mL. It also gave a CL/F (60 mg/kg) of 10.8 mL/min/kg, a Cmax (60 mg/kg) of 11600 ± 942 ng/mL and an MRT inf (60 mg/kg) of 8.8 ± 1.91 h. The Tmax (60 mg/kg) was 1.5 ± 0.316 h and the half-life (60 mg/kg) was 5.77 ± 1.59 h.
